Columns and labels:
Test in all cases: JNK Kinase Assay
[1] = target: Mitogen-activated protein kinase 10 (Homo sapiens, UniProt P53779)
Text: (§1) The binding results were confirmed by measuring IC50 for the inhibition of JNK kinase activity by using Z'-LYTE assay format.

[2] = target: Mitogen-activated protein kinase 9 (Homo sapiens, UniProt P45984)
Text: as §1

[3] = target: Mitogen-activated protein kinase 8 (Homo sapiens, UniProt P45983)
Sequence of Mitogen-activated protein kinase 8 (P45983 whole entry): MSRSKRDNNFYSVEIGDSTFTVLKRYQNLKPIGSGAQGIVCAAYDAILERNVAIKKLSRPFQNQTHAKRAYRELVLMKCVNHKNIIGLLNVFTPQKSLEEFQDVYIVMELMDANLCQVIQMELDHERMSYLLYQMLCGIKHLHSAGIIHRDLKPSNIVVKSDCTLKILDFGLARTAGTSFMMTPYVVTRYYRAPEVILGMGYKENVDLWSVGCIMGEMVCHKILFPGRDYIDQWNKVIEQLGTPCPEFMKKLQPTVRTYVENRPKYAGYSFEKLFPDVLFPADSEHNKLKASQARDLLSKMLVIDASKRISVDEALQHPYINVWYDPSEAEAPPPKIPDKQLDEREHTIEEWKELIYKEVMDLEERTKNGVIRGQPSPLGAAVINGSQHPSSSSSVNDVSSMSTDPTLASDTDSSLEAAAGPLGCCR
Text: as §1

Sequence of Mitogen-activated protein kinase 9 (P45984 whole entry): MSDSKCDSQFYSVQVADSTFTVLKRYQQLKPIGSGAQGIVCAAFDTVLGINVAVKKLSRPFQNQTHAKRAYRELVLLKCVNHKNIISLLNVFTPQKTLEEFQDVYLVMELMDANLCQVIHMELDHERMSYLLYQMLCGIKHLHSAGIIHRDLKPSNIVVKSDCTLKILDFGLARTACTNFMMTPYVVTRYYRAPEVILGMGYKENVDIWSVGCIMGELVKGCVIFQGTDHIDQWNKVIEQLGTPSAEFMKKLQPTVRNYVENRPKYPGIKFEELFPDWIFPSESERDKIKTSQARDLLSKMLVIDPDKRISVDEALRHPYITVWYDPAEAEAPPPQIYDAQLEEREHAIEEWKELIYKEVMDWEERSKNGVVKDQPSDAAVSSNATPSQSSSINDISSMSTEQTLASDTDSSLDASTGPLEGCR
Sequence of Mitogen-activated protein kinase 10 (P53779 whole entry): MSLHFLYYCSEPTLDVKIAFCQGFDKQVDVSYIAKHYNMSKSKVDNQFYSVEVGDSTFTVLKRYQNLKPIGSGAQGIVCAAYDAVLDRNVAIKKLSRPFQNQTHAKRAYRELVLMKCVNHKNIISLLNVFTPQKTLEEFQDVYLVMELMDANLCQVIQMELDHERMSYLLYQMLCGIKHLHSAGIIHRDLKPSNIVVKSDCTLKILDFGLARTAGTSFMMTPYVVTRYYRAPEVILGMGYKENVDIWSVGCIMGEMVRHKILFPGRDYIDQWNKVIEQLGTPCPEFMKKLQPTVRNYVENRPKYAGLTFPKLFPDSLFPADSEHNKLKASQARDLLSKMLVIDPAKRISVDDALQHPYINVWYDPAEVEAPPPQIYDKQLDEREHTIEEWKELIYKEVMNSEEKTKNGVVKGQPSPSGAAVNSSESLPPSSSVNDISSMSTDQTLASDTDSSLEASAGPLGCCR

SMILES	IC50 [1]	IC50 [2]	IC50 [3]
O=C1c2ccccc2-c2n[nH]c3cccc1c23	0.19 µM		
CN(C)C/C=C/C(=O)Nc1ccc(C(=O)Nc2cccc(Oc3nccc(-c4cccnc4)n3)c2)cc1 [JNK-IN-3]	> 10 µM	> 10 µM	> 10 µM
CN(C)C/C=C/C(=O)NCc1ccc(C(=O)Nc2cccc(Nc3nccc(-c4cccnc4)n3)c2)cc1 [JNK-IN-4]	7.22 µM	5.46 µM	2.39 µM
CN(C)C/C=C/C(=O)Nc1ccc(C(=O)Nc2cccc(Nc3nccc(-c4cccnc4)n3)c2)cc1 [JNK-IN-2]		1.14 µM	0.809 µM
N#CC(c1ccnc(NCCc2cccnc2)n1)c1nc2ccccc2s1 (configuration not stated) [[3H-Benzothiazol-(2Z)-ylidene]-[2-(2-pyridin-3-yl-ethylamino)-pyrimidin-4-yl]-acetonitrile]		0.22 µM	0.15 µM
CN(C)C/C=C/C(=O)Nc1cccc(C(=O)Nc2ccc(Nc3nccc(C(C#N)c4nc5ccccc5s4)n3)cc2)c1 (configuration not stated) [JNK-IN-12]	0.011 µM	0.0113 µM	0.013 µM
Cc1ccc(NC(=O)c2ccc(NC(=O)/C=C/CN(C)C)cc2)cc1Nc1nccc(-c2cccnc2)n1 [JNK-IN-1]	7.75 µM	4.23 µM	7.78 µM

Reference: BindingDB's records for doi:10.1016/j.chembiol.2011.11.010 (Harvard Medical School, 2012)
